Assay in all cases: inhibition of tumour cell growth, NCI panel, 48 h
The subject of experiment [1] is CCRF-CEM leukemia.
Experiment [2] concerns HCT-116 colon.
In experiment [3] the test system is MDA-MB-435.
The test system of experiment [4] is MOLT-4 leukemia.
Experiment [5] deals with SF-295 CNS.
The test system of experiment [6] is SF-539 CNS.
In experiment [7] the test system is SK-MEL-28 melanoma.
Experiment [8] deals with SK-MEL-5 melanoma.
Experiment [9] deals with SNB-19 CNS.
In experiment [10] the test system is U251 CNS.

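Test compounds were applied to cells in 96-well plates for 48 hours at 5 doses. Abbreviation: GI50, concentration required for 50% inhibition of growth. TGI marks complete inhibition of growth.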

These results are taken from PubChem BioAssay (NCI).

Take `CN(Cc1ccc(Cl)cc1)c1ccc(CO)c(Cl)c1`: the GI50 in experiment [1] was 15.1 µM; in [2], 0.445 µM; in [3] it was 13.5 µM; in experiment [4] it was 18 µM; in experiment [5], 2.48 µM; in experiment [6], 14 µM. Also, the GI50 in [7] is 12.3 µM; in [8], 5.42 µM; in experiment [9], 16.8 µM; in experiment [10], 3.01 µM. The TGI in experiment [1] was over 66.3 µM; in [2], 8.75 µM; in experiment [3] it was 27.9 µM; in experiment [4] it was 66.2 µM; in experiment [5], 16 µM; in experiment [6], 28.8 µM. Moreover, the TGI amounted to 25.1 µM in experiment [7], 17.3 µM in [8], 51.6 µM in experiment [9] and 15.9 µM in [10].

Turning to `N#Cc1ncc(-c2ccc(C(F)(F)F)cc2)c(NCc2cc(C(F)(F)F)cc(C(F)(F)F)c2)n1`, the GI50 in experiment [1] was 2.26 µM; in experiment [2], 2.93 µM; in [3] it was 3.42 µM; in experiment [4], 3.17 µM; in experiment [5] it was 2.78 µM; in experiment [6] it was 8.5 µM. The GI50 in experiment [7] is 5.17 µM; in experiment [8], 3.91 µM; in experiment [9], 4.84 µM; in [10] it was 3.66 µM. Also, the TGI was 49.8 µM in experiment [1]; over 100 µM in experiment [2]; over 100 µM in experiment [3]; 9.79 µM in experiment [4]; 29.1 µM in experiment [5]; over 100 µM in experiment [6]. For the same compound, the TGI was over 100 µM in experiment [7], 15 µM in experiment [8], 63.3 µM in experiment [9] and 53.5 µM in experiment [10].

In the case of `COc1cc2c(cc1O)-c1c(cnn1-c1ccc([N+](=O)[O-])cc1)CCC2`, the TGI in experiment [1] turned out to be 30.6 µM; in experiment [2], 71.4 µM; in experiment [3] it was 48.6 µM; in experiment [4], 6.2 µM; in [5], 82.5 µM; in [6] it was 33.4 µM. Besides, the TGI in [7] is over 100 µM; in [8] it was 26.2 µM; in experiment [9] it was over 100 µM; in experiment [10], 24.9 µM.

For the compound `CCOc1ccccc1NC(=O)c1cc2ccccc2cc1O`, the GI50 in [1] is 2.58 µM; in [2] it was 2.88 µM; in experiment [3], 2.38 µM; in [4] it was 2.72 µM; in [5], 2.84 µM; in experiment [6] it was 3.05 µM. The GI50 in experiment [7] was 4.91 µM; in [8] it was 1.82 µM; in experiment [9], 4.28 µM; in [10] it was 3.11 µM. Also, the TGI in [1] turned out to be 32.9 µM; in experiment [2] it was 8.02 µM; in experiment [3] it was 7.08 µM; in experiment [4], 7.17 µM; in experiment [5], 9.46 µM; in experiment [6] it was 15.8 µM. Further, the TGI in experiment [7] was found to be 20.2 µM; in [8], 3.7 µM; in [9], 25.1 µM; in [10], 11.6 µM.

`CCOC(=O)/C(=N\OC)C(O)C(F)(F)F` (stereo not given): the TGI in experiment [1], in experiment [2], in experiment [3], in [4], in experiment [5] and in experiment [6] was over 100 µM in each case. The TGI in experiment [7], in [8], in experiment [9] and in experiment [10] was over 100 µM throughout.

For `COC(=O)C1=C(C)NC(C)=C(C(=O)OC)C1/C=C(\Cl)c1ccc(Cl)c(Cl)c1`, the GI50 in [1] was 5.55 µM; in [2], 12.2 µM; in experiment [3], 15.1 µM; in [4], 3.69 µM; in [5], 6.26 µM; in experiment [6] it was 17.1 µM. Also, the GI50 in [7] was 13.2 µM; in experiment [8] it was 15.2 µM; in [9], 18.8 µM; in [10] it was 14.1 µM. Further, the TGI in [1] was 31.6 µM; in experiment [2], 24.6 µM; in experiment [3] it was 32.1 µM; in [4], 27.6 µM; in experiment [5], 21.6 µM; in [6] it was 33 µM. For the same compound, the TGI in experiment [7] stood at 27.7 µM; in [8], 28.5 µM; in [9], 41.6 µM; in [10] it was 27.1 µM.

As to `COc1cc(-n2cc(-c3ccc(F)cc3)nc2SCc2ccccc2)cc(OC)c1OC`, the GI50 was 17.7 µM in experiment [1]; 18.8 µM in [2]; over 100 µM in experiment [3]; 89.2 µM in experiment [4]; over 100 µM in experiment [5]; over 100 µM in [6]. The GI50 is over 100 µM in [7], 54.8 µM in experiment [8], over 100 µM in experiment [9] and over 100 µM in [10]. For the same compound, the TGI in experiment [1] was 43.8 µM; in experiment [2] it was over 100 µM; in [3], over 100 µM; in [4], over 100 µM; in experiment [5] it was over 100 µM; in experiment [6], over 100 µM. Besides, the TGI in experiment [7], in [8], in experiment [9] and in [10] was over 100 µM in each case.

As to `O=C1CC(c2cccc(O)c2)C2(C(=O)NC(=S)NC2=O)C(c2cccc(O)c2)C1` (stereo not given), the GI50 in experiment [1], in experiment [2], in experiment [3], in experiment [4], in [5] and in experiment [6] was over 100 µM throughout. In addition, the GI50 in experiment [7], in [8], in [9] and in [10] was over 100 µM in each case. In addition, the TGI in experiment [1], in experiment [2], in [3], in experiment [4], in experiment [5] and in experiment [6] was over 100 µM in each case. In addition, the TGI in experiment [7], in [8], in [9] and in experiment [10] was over 100 µM throughout.

With `Oc1ccc(CN2CCC(N3CCOCC3)CC2)c2cccnc12`, the GI50 is 23.8 µM in experiment [1]; 34.4 µM in experiment [2]; 36.2 µM in [3]; 30.9 µM in experiment [4]; 39.8 µM in [5]; 24.2 µM in experiment [6]. Further, the GI50 is 37.6 µM in experiment [7], 23.2 µM in experiment [8], 43.9 µM in [9] and 24.4 µM in [10]. Also, the TGI in experiment [1], in [2], in [3], in [4], in experiment [5] and in experiment [6] was over 100 µM each time. The TGI was over 100 µM in experiment [7], 57 µM in experiment [8], over 100 µM in [9] and over 100 µM in experiment [10].

As for `CCCCCc1nc2c(c3c1CCCC3)CCCC2`, the GI50 in [1] is 11.1 µM; in experiment [2], 3.01 µM; in [3], 14.4 µM; in experiment [4], 8.88 µM; in experiment [5], 4.58 µM; in experiment [6], 17.4 µM. The GI50 in experiment [7] was 14.8 µM; in experiment [8], 6.19 µM; in [9], 18.3 µM; in experiment [10], 11.9 µM. Moreover, the TGI in experiment [1] came out at 43.2 µM; in experiment [2] it was 15.2 µM; in [3], 38.7 µM; in experiment [4], 62.6 µM; in [5], 20.9 µM; in experiment [6], 36.2 µM. In addition, the TGI in experiment [7] is 36.2 µM; in [8], 18.8 µM; in [9], over 100 µM; in experiment [10], 29.1 µM.

With `CCOc1ccc(-c2cnnn2-c2nonc2-n2cccc2)cc1`, the GI50 is 0.296 µM in experiment [1]; 0.226 µM in [2]; 0.0345 µM in experiment [3]; 0.51 µM in experiment [4]; 0.295 µM in experiment [5]; 0.319 µM in [6]. The GI50 in experiment [7] is 0.402 µM; in experiment [8], 0.245 µM; in experiment [9], 0.729 µM; in [10], 0.339 µM. Besides, the TGI in [1] was over 100 µM; in [2] it was 1.46 µM; in experiment [3] it was 0.168 µM; in [4], 31.7 µM; in experiment [5], over 91.2 µM; in [6], 3.77 µM. Also, the TGI was over 100 µM in experiment [7], 12.4 µM in experiment [8], over 100 µM in [9] and over 78.7 µM in [10].

`CC(C)[C@H]1CC[C@H]2[C@@H](CC[C@H]3[C@](C)(CN)CCC[C@]23C)C1`: the GI50 was 3.42 µM in [1]; 1.72 µM in experiment [2]; 2.13 µM in [3]; 2.21 µM in experiment [4]; 1.83 µM in experiment [5]; 1.59 µM in experiment [6]. Also, the GI50 in experiment [7] was 16.8 µM; in [8] it was 4.87 µM; in experiment [9] it was 3.19 µM; in experiment [10] it was 1.67 µM. The TGI in [1] was 12.8 µM; in experiment [2], 3.09 µM; in experiment [3] it was 4.69 µM; in experiment [4], 5.2 µM; in experiment [5] it was 3.87 µM; in [6], 2.95 µM. The TGI in experiment [7] was 30.8 µM; in experiment [8], 17.3 µM; in [9] it was 12.9 µM; in experiment [10], 3.08 µM.

For the compound `Fc1ccc(-c2nn3c(-c4ccc(F)c(Cl)c4)nnc3s2)cc1`, the GI50 is 5.52 µM in experiment [1]; 21.6 µM in experiment [2]; over 50 µM in experiment [3]; 26.3 µM in experiment [4]; 18.2 µM in experiment [5]; over 50 µM in experiment [6]. The GI50 was over 50 µM in [7], 44.2 µM in [8], 20.1 µM in experiment [9] and 18.5 µM in experiment [10]. Moreover, the TGI was 17.8 µM in [1]; over 50 µM in experiment [2]; over 50 µM in experiment [3]; over 50 µM in experiment [4]; over 50 µM in experiment [5]; over 50 µM in experiment [6]. For the same compound, the TGI in experiment [7], in experiment [8], in [9] and in experiment [10] was over 50 µM in each case.

As to `CC(=O)CCc1ccc(OC2OC(COC(=O)c3cc(O)c(O)c(O)c3)C(O)C(O)C2OC(=O)/C=C/c2ccccc2)cc1` (stereo not given), the GI50 in experiment [1] is 20.7 µM; in experiment [2], 15.1 µM; in experiment [3], 16.8 µM; in experiment [4], 17.2 µM; in [5], 24.5 µM; in [6], 26.4 µM. For the same compound, the GI50 is 19.4 µM in experiment [7], 19.1 µM in experiment [8], 18.4 µM in [9] and 11.9 µM in experiment [10]. Further, the TGI in experiment [1] is 52.2 µM; in experiment [2], 29.9 µM; in experiment [3] it was 37.1 µM; in experiment [4], 48.7 µM; in experiment [5] it was 52.2 µM; in [6], 44.8 µM. In addition, the TGI in experiment [7] was determined as 39.9 µM; in [8], 36.1 µM; in experiment [9], 49.7 µM; in [10] it was 30.1 µM.

In the case of `CC(=O)Nc1ccc(/C=C/C(=O)c2ccccc2)cc1`, the GI50 in experiment [1] was 3.36 µM; in experiment [2] it was 3.98 µM; in [3] it was 17.4 µM; in experiment [4], 5.55 µM; in experiment [5], 14.4 µM; in experiment [6], 14 µM. Moreover, the GI50 in [7] is 20.5 µM; in experiment [8], 16.2 µM; in [9], 13.5 µM; in experiment [10], 4.61 µM. For the same compound, the TGI in experiment [1] is 16.6 µM; in experiment [2] it was 15.5 µM; in experiment [3] it was 50.5 µM; in experiment [4] it was 68.4 µM; in experiment [5], 31.7 µM; in experiment [6], 32.9 µM. Besides, the TGI in experiment [7] worked out at 44.2 µM; in [8], 30.3 µM; in experiment [9], 34.1 µM; in experiment [10], 17.7 µM.
